Test results published in PubChem BioAssay (NCI).
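48-hour exposure; five concentrations; linearly interpolated endpoints. The concentration for 50% growth inhibition is given as GI50. At the TGI there is no net growth.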 Where a SMILES comes first, the peptide text is derived from it. [ ]: non-standard residue; d: D form. The star is where a group is joined. NMeF = CN[CH](Cc1ccccc1)C(=O)O; NMeV = CN[CH](C(=O)O)C(C)C; Boc = CC(C)(C)OC(=O)*; OBn = c1ccc(CO*)cc1

What was measured:
Experiment in all cases: DTP human tumour cell line panel, 48 h
[1] = test system: NCI-H226 lung
[2] = test system: SN12C renal
[3] = test system: SNB-75 CNS
[4] = test system: KM12 colon
[5] = test system: A549 NSCLC
[6] = test system: ACHN renal
[7] = test system: OVCAR-5 ovarian
[8] = test system: U251 CNS
[9] = test system: RXF 393 renal

Compound | TGI [1] [µM] | TGI [2] [µM] | TGI [3] [µM] | TGI [4] [µM] | TGI [5] [µM] | TGI [6] [µM] | TGI [7] [µM] | TGI [8] [µM] | TGI [9] [µM] | GI50 [2] [µM] | GI50 [6] [µM] | GI50 [7] [µM] | GI50 [3] [µM] | GI50 [4] [µM] | GI50 [5] [µM] | GI50 [8] [µM] | GI50 [9] [µM]
COc1cc2c(c3oc(-c4ccc5c(c4)OCO5)c(O)c(=O)c13)CCC(C)(C)O2 | > 100 | > 100 | > 100 | > 100 | > 100 | – | – | – | – | – | – | – | – | – | – | – | –
CC1(C)CCc2cc3c(cc2O1)OC(C)(C)C1c2c(ccc4c2CCC(C)(C)O4)OC31 (stereo not drawn) | > 100 | > 100 | – | > 100 | > 100 | > 100 | > 100 | > 100 | – | – | – | – | – | – | – | – | –
CC(C)C(/C=C/c1ccccc1)=N\NC(=O)N/N=C(/C=C/c1ccccc1)C(C)C | 55.4 | 33.2 | 92.5 | > 100 | > 100 | > 100 | > 100 | > 100 | – | – | – | – | – | – | – | – | –
COc1cc(C)c(C(=O)/C=C/c2cc(OC)c(O)c(OC)c2)cc1O | – | – | > 100 | 50 | > 100 | > 100 | 69.9 | 44.6 | – | – | – | – | – | – | – | – | –
Cc1cn(C2C=CC(=O)C(C)O2)c(=O)[nH]c1=O (stereo not drawn) | 42.1 | 29.8 | 29.1 | 30.1 | > 100 | 31.3 | – | 28.6 | – | – | – | – | – | – | – | – | –
COc1cc2ccc(CC#N)cc2cc1OC | > 100 | > 100 | – | > 100 | > 100 | > 100 | > 100 | > 100 | > 100 | – | – | – | – | – | – | – | –
COc1ccc2oc(-c3ccncc3)cc(=O)c2c1 | > 100 | > 100 | > 100 | > 100 | – | > 100 | > 100 | > 100 | > 100 | – | – | – | – | – | – | – | –
CC(C)O/C=C1\C(=O)C2(SCCS2)[C@H]2CCCC[C@@H]12 | > 100 | > 100 | > 100 | > 100 | > 100 | > 100 | – | > 100 | 57.8 | – | – | – | – | – | – | – | –
CN(C)c1nc(N(C)C)nc(N(C)CN(C)c2nc(N(C)C)nc(N(C)C)n2)n1 | – | > 100 | > 100 | > 100 | > 100 | > 100 | > 100 | > 100 | > 100 | – | – | – | – | – | – | – | –
CC1SC2=NC3=C(c4ccccc4C3=O)C(c3ccc(Br)cc3)N2C1=O (stereo not drawn) | > 100 | > 100 | 96.9 | > 100 | > 100 | > 100 | > 100 | > 100 | – | – | – | – | – | – | – | – | –
O=C1c2cnccc2Cc2cccc3c2N1c1ccccc1S3 | – | > 100 | 48.5 | 66 | > 100 | 73.9 | – | 34 | 65.3 | – | – | – | – | – | – | – | –
OCCc1cnco1 | > 100 | > 100 | > 100 | > 100 | > 100 | – | – | > 100 | > 100 | – | – | – | – | – | – | – | –
COc1ccc(CNc2nc3ccccc3nc2-c2cccs2)cc1OC | > 100 | > 100 | – | – | > 100 | > 100 | > 100 | > 100 | > 100 | – | – | – | – | – | – | – | –
O=C1C=C(N2CC2)c2ccccc2C1=O | – | 3.22 | 3.12 | 3.27 | 4.7 | 2.96 | 3.68 | 3.01 | 3.08 | 1.76 | 1.58 | 2.03 | 1.57 | 1.78 | 2.07 | 1.55 | 1.64
CC(C)C(NC(=O)OC(C)(C)C)C(=O)N(C)C(Cc1ccccc1)C(=O)N(C)C(C(=O)N(C)C(C(=O)OCc1ccccc1)C(C)C)C(C)C (stereo not drawn) (Boc-V[NMeF][NMeV][NMeV]-OBn; configuration not given here) | > 100 | > 100 | – | > 100 | > 100 | > 100 | – | > 100 | – | – | – | – | – | – | – | – | –
CCOC(=O)CNC(SC)=C(C#N)C#N | > 100 | > 100 | > 100 | > 100 | > 100 | – | > 100 | > 100 | > 100 | – | – | – | – | – | – | – | –
CSc1nc2c(nc(N)n2C2OCC(O)C(O)C2O)c(=O)[nH]1 (stereo not drawn) | > 100 | > 100 | > 100 | > 100 | > 100 | > 100 | – | > 100 | > 100 | – | – | – | – | – | – | – | –
C#CCOCn1cnc2ncnc(Cl)c21 | > 100 | > 100 | > 100 | > 100 | > 100 | > 100 | > 100 | > 100 | – | – | – | – | – | – | – | – | –
O=C(N/C(=C\c1ccc([N+](=O)[O-])cc1)c1nc2[nH]c(=S)[nH]c(=O)c2[nH]1)c1ccccc1 | – | > 100 | – | > 100 | > 100 | > 100 | > 100 | > 100 | > 100 | – | – | – | – | – | – | – | –
O=C1Cc2ccccc2N1/N=C\c1ccc(O)cc1 | > 100 | > 100 | 70.5 | > 100 | > 100 | > 100 | > 100 | > 100 | – | – | – | – | – | – | – | – | –
C(=C1\CCC/C(=C/c2ccccc2)C1=NNc1ccccc1)/c1ccccc1 | – | > 100 | > 100 | > 100 | > 100 | > 100 | > 100 | > 100 | > 100 | – | – | – | – | – | – | – | –
